Results published in US7445765B2, “Radiopharmaceutical for diagnostic imaging containing a technetium-99m nitride heterocomplex” (Nihon Medi-Physics Co., Ltd., priority 2000, dated 2008).

Columns and labels:
[1] = Stability: ligand exchange reaction with cysteine or glutathione; format: physicochemical; conditions: phosphate buffer pH 7.4, 37° C., up to 2 hours, TLC
Method: The stability of the ^99mTc(N) heterocomplexes obtained using PNP3 as a bisphosphinoamine compound in Example 1 was confirmed by ligand exchange reaction with cysteine or glutathione.
250.0 μL of phosphate buffer solution (0.20 M, pH=7.4), 100 μL of water and 100 μL of each of the ^99mTc(N) heterocomplexes purified were mixed with 50 μL of each of cysteine solutions having different concentrations of 10 mM and 1.0 mM, and the resulting mixture was placed in a polypropylene test tube and incubated in a thermostat at 37° C. A blank solution was obtained by mixing an equal volume of water without addition of cysteine. Aliquots of the resulting solutions were withdrawn at 15 min, 30 min, 60 min and 2 hours after the start of the incubation, and analyzed by TLC. The same experiment as above was carried out except for using glutathione in place of cysteine. All the ^99mTc(N) heterocomplex samples were found stable against transchelation by cystein or glutathione.

[2] = Biodistribution of the 99mTc(N) heterocomplexes in rats (organ uptake, heart accumulation, heart/lung and heart/liver ratios); format: in vivo, female Sprague-Dawley rats
Summary of the method: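 Female Sprague-Dawley rats (200–250 g, n=3), ketamine/xylazine anaesthesia, got 300–370 kBq of each purified heterocomplex in pH 7.4 phosphate buffer (10% ethanol) via the jugular vein. They were killed at several post-injection times. Heart blood and washed, weighed organs were gamma-counted, taking whole blood as 6.5% of body weight.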

[3] = Measurement of Log k′ (partition ratio) by HPLC, PNP3 heterocomplexes; format: physicochemical; conditions: HPLC C18, methanol/phosphate buffer (0.02M, pH 7.4), 1.0 mL/min; extrapolated to 0% organic solvent
Method: For the various ^99mTc(N) heterocomplexes synthesized using PNP3 as a bisphosphinoamine compound in Example 1, Log k′ values were determined at various compositions of a mobile phase for HPLC. As the mobile phase, mixtures of methanol and phosphate buffer (0.02M, pH=7.4) were used at a flow rate of 1.0 mL/min. For each sample, the retention time was measured at a minimum of three different methanol concentrations in the mobile phase. The Log k′ values at 0% organic solvent (Log k′0) were extrapolated from the linear part of the curve Log k′=a+bC, where C is the methanol concentration, and Log k′ is Log (tR-to)/to wherein tR is HPLC retension time (min). The column void time (t0) was regarded as being equal to the elution time of pertechnetic acid.

COCCC[P]1(CCCOC)CCN(CCOC)CC[P](CCCOC)(CCCOC)[99Tc+]12(#[N])[S]C(N(CCOC)CCOC)=[S]2 [[^99mTc(N) (PNP3) (DPODC)]^+]
Stability [1]: Stable
Biodistribution in rats: Adrenal glands ([2]; 0 min post injection): 1.65 ± 0.22 % ID/g
Biodistribution in rats: Blood ([2]; 0 min post injection): 1.36 ± 0.02 % ID/g
Biodistribution in rats: Brain ([2]; 0 min post injection): 0.20 ± 0.02 % ID/g
Biodistribution in rats: Heart ([2]; 0 min post injection): 3.08 ± 0.31 % ID/g
Biodistribution in rats: Intestine ([2]; 0 min post injection): 3.25 ± 0.60 % ID/g
Biodistribution in rats: Kidneys ([2]; 0 min post injection): 6.36 ± 0.13 % ID/g
Biodistribution in rats: Liver ([2]; 0 min post injection): 3.48 ± 0.24 % ID/g
Biodistribution in rats: Lungs ([2]; 0 min post injection): 1.45 ± 0.04 % ID/g
Biodistribution in rats: Muscle ([2]; 0 min post injection): 0.27 ± 0.02 % ID/g
Biodistribution in rats: Spleen ([2]; 0 min post injection): 1.23 ± 0.01 % ID/g
Biodistribution in rats: Submaxillary glands ([2]; 0 min post injection): 2.27 ± 0.20 % ID/g
Biodistribution in rats: Adrenal glands ([2]; 2 min post injection): 0.98 ± 0.12 % ID/g
Biodistribution in rats: Blood ([2]; 2 min post injection): 0.30 ± 0.09 % ID/g
Biodistribution in rats: Brain ([2]; 2 min post injection): 0.02 ± 0.00 % ID/g
Biodistribution in rats: Heart ([2]; 2 min post injection): 2.06 ± 0.13 % ID/g
Biodistribution in rats: Intestine ([2]; 2 min post injection): 4.30 ± 1.74 % ID/g
Biodistribution in rats: Kidneys ([2]; 2 min post injection): 8.21 ± 0.62 % ID/g
Biodistribution in rats: Liver ([2]; 2 min post injection): 3.71 ± 0.36 % ID/g
Biodistribution in rats: Lungs ([2]; 2 min post injection): 0.65 ± 0.06 % ID/g
Biodistribution in rats: Muscle ([2]; 2 min post injection): 0.25 ± 0.04 % ID/g
Biodistribution in rats: Spleen ([2]; 2 min post injection): 0.51 ± 0.04 % ID/g
Biodistribution in rats: Submaxillary glands ([2]; 2 min post injection): 1.22 ± 0.11 % ID/g
Biodistribution in rats: Adrenal glands ([2]; 10 min post injection): 1.49 ± 0.82 % ID/g
Biodistribution in rats: Blood ([2]; 10 min post injection): 0.21 ± 0.00 % ID/g
Biodistribution in rats: Brain ([2]; 10 min post injection): 0.01 ± 0.00 % ID/g
Biodistribution in rats: Heart ([2]; 10 min post injection): 2.37 ± 0.33 % ID/g
Biodistribution in rats: Intestine ([2]; 10 min post injection): 4.36 ± 2.28 % ID/g
Biodistribution in rats: Kidneys ([2]; 10 min post injection): 6.82 ± 3.62 % ID/g
Biodistribution in rats: Liver ([2]; 10 min post injection): 3.49 ± 0.09 % ID/g
Biodistribution in rats: Lungs ([2]; 10 min post injection): 0.67 ± 0.23 % ID/g
Biodistribution in rats: Muscle ([2]; 10 min post injection): 0.29 ± 0.08 % ID/g
Biodistribution in rats: Spleen ([2]; 10 min post injection): 0.57 ± 0.22 % ID/g
Biodistribution in rats: Submaxillary glands ([2]; 10 min post injection): 1.70 ± 0.60 % ID/g
Biodistribution in rats: Adrenal glands ([2]; 20 min post injection): 1.46 ± 0.15 % ID/g
Biodistribution in rats: Blood ([2]; 20 min post injection): 0.08 ± 0.02 % ID/g
Biodistribution in rats: Brain ([2]; 20 min post injection): 0.01 ± 0.00 % ID/g
Biodistribution in rats: Heart ([2]; 20 min post injection): 2.49 ± 0.31 % ID/g
Biodistribution in rats: Intestine ([2]; 20 min post injection): 14.47 ± 4.75 % ID/g
Biodistribution in rats: Kidneys ([2]; 20 min post injection): 5.63 ± 2.05 % ID/g
Biodistribution in rats: Liver ([2]; 20 min post injection): 1.86 ± 0.47 % ID/g
Biodistribution in rats: Lungs ([2]; 20 min post injection): 0.43 ± 0.05 % ID/g
Biodistribution in rats: Muscle ([2]; 20 min post injection): 0.39 ± 0.12 % ID/g
Biodistribution in rats: Spleen ([2]; 20 min post injection): 0.38 ± 0.04 % ID/g
Biodistribution in rats: Submaxillary glands ([2]; 20 min post injection): 1.38 ± 0.07 % ID/g
Biodistribution in rats: Adrenal glands ([2]; 30 min post injection): 1.31 ± 0.19 % ID/g
Biodistribution in rats: Blood ([2]; 30 min post injection): 0.04 ± 0.00 % ID/g
Biodistribution in rats: Brain ([2]; 30 min post injection): 0.01 ± 0.00 % ID/g
Biodistribution in rats: Heart ([2]; 30 min post injection): 2.57 ± 0.06 % ID/g
Biodistribution in rats: Intestine ([2]; 30 min post injection): 11.78 ± 1.78 % ID/g
Biodistribution in rats: Kidneys ([2]; 30 min post injection): 4.88 ± 0.56 % ID/g
Biodistribution in rats: Liver ([2]; 30 min post injection): 1.30 ± 0.71 % ID/g
Biodistribution in rats: Lungs ([2]; 30 min post injection): 0.41 ± 0.04 % ID/g
Biodistribution in rats: Muscle ([2]; 30 min post injection): 0.32 ± 0.08 % ID/g
Biodistribution in rats: Spleen ([2]; 30 min post injection): 0.37 ± 0.00 % ID/g
Biodistribution in rats: Submaxillary glands ([2]; 30 min post injection): 1.53 ± 0.17 % ID/g
Biodistribution in rats: Adrenal glands ([2]; 60 min post injection): 1.17 ± 0.17 % ID/g
Biodistribution in rats: Blood ([2]; 60 min post injection): 0.02 ± 0.01 % ID/g
Biodistribution in rats: Brain ([2]; 60 min post injection): 0.01 ± 0.00 % ID/g
Biodistribution in rats: Heart ([2]; 60 min post injection): 2.26 ± 0.60 % ID/g
Biodistribution in rats: Intestine ([2]; 60 min post injection): 11.05 ± 5.05 % ID/g
Biodistribution in rats: Kidneys ([2]; 60 min post injection): 3.44 ± 0.76 % ID/g
Biodistribution in rats: Liver ([2]; 60 min post injection): 0.42 ± 0.23 % ID/g
Biodistribution in rats: Lungs ([2]; 60 min post injection): 0.27 ± 0.09 % ID/g
Biodistribution in rats: Muscle ([2]; 60 min post injection): 0.27 ± 0.04 % ID/g
Biodistribution in rats: Spleen ([2]; 60 min post injection): 0.18 ± 0.10 % ID/g
Biodistribution in rats: Submaxillary glands ([2]; 60 min post injection): 1.33 ± 0.46 % ID/g
Biodistribution in rats: Adrenal glands ([2]; 120 min post injection): 1.14 ± 0.15 % ID/g
Biodistribution in rats: Blood ([2]; 120 min post injection): 0.01 ± 0.00 % ID/g
Biodistribution in rats: Brain ([2]; 120 min post injection): 0.01 ± 0.00 % ID/g
Biodistribution in rats: Heart ([2]; 120 min post injection): 2.45 ± 0.41 % ID/g
Biodistribution in rats: Intestine ([2]; 120 min post injection): 16.10 ± 2.10 % ID/g
Biodistribution in rats: Kidneys ([2]; 120 min post injection): 3.43 ± 0.38 % ID/g
Biodistribution in rats: Liver ([2]; 120 min post injection): 0.16 ± 0.04 % ID/g
Biodistribution in rats: Lungs ([2]; 120 min post injection): 0.20 ± 0.04 % ID/g
Biodistribution in rats: Muscle ([2]; 120 min post injection): 0.36 ± 0.12 % ID/g
Biodistribution in rats: Spleen ([2]; 120 min post injection): 0.14 ± 0.03 % ID/g
Biodistribution in rats: Submaxillary glands ([2]; 120 min post injection): 1.36 ± 0.14 % ID/g
Log k′ (partition ratio) [3]: 3.18
